Measured values taken from ChEMBL document CHEMBL4052809, “Development of a highly reliable assay for ubiquitin-specific protease 2 inhibitors” (Bioorg Med Chem Lett, 2017).
The source made the active and inactive calls. No cut-off for these calls is given here.

Tests used:
[1] = target: T1, Ubiquitin carboxyl-terminal hydrolase 2 (Homo sapiens) (UniProt O75604); assay: Inhibition of recombinant human N-terminal His-tagged USP2 catalytic domain (258 to 605 residues) expressed in Escherichia coli BL21(DE3) at 100 uM using human N-terminal GST-tagged UBA52 as substrate pretreated for 10 mins followed by substrate addition after 60 mins by coomassie staining based assay
T1 sequence (whole entry): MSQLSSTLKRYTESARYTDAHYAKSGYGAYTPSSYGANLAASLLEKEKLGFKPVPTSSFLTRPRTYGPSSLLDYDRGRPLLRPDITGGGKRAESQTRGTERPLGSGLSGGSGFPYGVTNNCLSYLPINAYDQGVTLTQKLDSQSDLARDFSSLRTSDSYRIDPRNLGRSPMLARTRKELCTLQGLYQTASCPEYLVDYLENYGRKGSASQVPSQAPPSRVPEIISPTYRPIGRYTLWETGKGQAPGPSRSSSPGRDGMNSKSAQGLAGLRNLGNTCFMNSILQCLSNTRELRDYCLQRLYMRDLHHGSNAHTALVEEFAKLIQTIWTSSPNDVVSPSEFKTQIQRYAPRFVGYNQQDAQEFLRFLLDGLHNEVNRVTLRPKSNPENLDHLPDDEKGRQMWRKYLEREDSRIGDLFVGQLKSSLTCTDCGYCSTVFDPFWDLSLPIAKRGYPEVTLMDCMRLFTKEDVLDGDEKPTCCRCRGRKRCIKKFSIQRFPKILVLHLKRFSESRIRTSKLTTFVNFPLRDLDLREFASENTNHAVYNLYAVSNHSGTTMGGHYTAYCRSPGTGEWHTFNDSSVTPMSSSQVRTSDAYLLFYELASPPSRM

[2] = target: T2, Ubiquitin carboxyl-terminal hydrolase 2 (Homo sapiens, UniProt O75604); assay: Inhibition of recombinant human N-terminal His-tagged USP2 catalytic domain (258 to 605 residues) expressed in Escherichia coli BL21(DE3) using human N-terminal GST-tagged UBA52 as substrate pretreated for 10 mins followed by substrate addition after 60 mins by coomassie staining based assay
T2 sequence (O75604 whole entry): T1 sequence (whole entry)

In the case of CC(=O)Nc1cccc(CNC(=O)c2sc3ccccc3c2OCc2ccccc2)c1, the inhibition [1] is reported as “Active” and the IC50 [2] is reported as 66.1 to 74.3 µM.
